# According to ChEMBL document CHEMBL5131534, “Identification of 2-Pyridinylindole-Based Dual Antagonists of Toll-like Receptors 7 and 8 (TLR7/8)” (ACS Med Chem Lett, 2022):
# pIC50: −log10 of the molar value.
# Experiments:
# [1] = Plasma protein binding in human assessed as free fraction; assay type: ADME, cell-free
# [2] = Oral bioavailability in mouse blood at 15 mg/kg; assay type: ADME, organism-based
# [3] = Volume of distribution at steady state in mouse blood at 5 mg/kg, iv; assay type: ADME, organism-based; conditions: read-out: Vdss
# [4] = Toxicity in MRL/Ipr Systemic lupus erythematosus mouse model assessed as relative spleen weight at 5 mg/kg, po administered for 8 weeks and measured 24 hrs post final dose relative to control; assay type: organism-based; conditions: in vivo, 1368 h
# [5] = AUClast in mouse blood at 15 mg/kg, po; assay type: ADME, organism-based; set-up: time 0 - last, dose 15 mg/kg, route po
# [6] = Toxicity in MRL/Ipr Systemic lupus erythematosus mouse model assessed as change in body weight at 0.1 to 20 mg/kg, po administered for 8 weeks and measured 24 hrs post final dose; assay type: organism-based; conditions: in vivo, 1368 h, dose 0.1-20 mg/kg
# Mus musculus [7] = experiment: Anti-inflammatory activity against MRL/Ipr Systemic lupus erythematosus mouse model assessed as inhibition of proteinuria at 5 mg/kg, po administered for 8 weeks and measured 24 hrs post final dose relative to control; assay type: functional; set-up: scale not given: the % may be the effect or the level left; conditions: time 1368 hrs
# [8] = In vivo antagonist activity at TRL7 in C57BL/6 mouse assessed as inhibition of gardiquimod stimulated IL-6 production at 0.05 mg/kg,po for 30 minutes and followed by gardiquimod addition measured after 90 mins by ELISA analysis relative to control; assay type: functional; set-up: scale not given: the % may be the effect or the level left; conditions: time 120 min, 2 h
# Mus musculus [9] = experiment: Anti-inflammatory activity against MRL/Ipr Systemic lupus erythematosus mouse model assessed as inhibition of anti-dsDNA Ab titer at 5 mg/kg, po administered for 8 weeks and measured 24 hrs post final dose relative to control; assay type: functional; set-up: scale not given: the % may be the effect or the level left; conditions: time 1368 hrs
# Toll-like receptor 3 = molecular target: T1, Toll-like receptor 3 (Homo sapiens, UniProt O15455); experiment: Antagonist activity at […] stimulated human TRL3 overexpressed in HEK293 cells assessed as inhibition of NF kappa B/Ap-1 activation preincubated with compound for 30 mins followed by […] stimulation measured after 22 hrs by SEAP reporter assay; assay type: cell-based
# T1 sequence (O15455 whole entry): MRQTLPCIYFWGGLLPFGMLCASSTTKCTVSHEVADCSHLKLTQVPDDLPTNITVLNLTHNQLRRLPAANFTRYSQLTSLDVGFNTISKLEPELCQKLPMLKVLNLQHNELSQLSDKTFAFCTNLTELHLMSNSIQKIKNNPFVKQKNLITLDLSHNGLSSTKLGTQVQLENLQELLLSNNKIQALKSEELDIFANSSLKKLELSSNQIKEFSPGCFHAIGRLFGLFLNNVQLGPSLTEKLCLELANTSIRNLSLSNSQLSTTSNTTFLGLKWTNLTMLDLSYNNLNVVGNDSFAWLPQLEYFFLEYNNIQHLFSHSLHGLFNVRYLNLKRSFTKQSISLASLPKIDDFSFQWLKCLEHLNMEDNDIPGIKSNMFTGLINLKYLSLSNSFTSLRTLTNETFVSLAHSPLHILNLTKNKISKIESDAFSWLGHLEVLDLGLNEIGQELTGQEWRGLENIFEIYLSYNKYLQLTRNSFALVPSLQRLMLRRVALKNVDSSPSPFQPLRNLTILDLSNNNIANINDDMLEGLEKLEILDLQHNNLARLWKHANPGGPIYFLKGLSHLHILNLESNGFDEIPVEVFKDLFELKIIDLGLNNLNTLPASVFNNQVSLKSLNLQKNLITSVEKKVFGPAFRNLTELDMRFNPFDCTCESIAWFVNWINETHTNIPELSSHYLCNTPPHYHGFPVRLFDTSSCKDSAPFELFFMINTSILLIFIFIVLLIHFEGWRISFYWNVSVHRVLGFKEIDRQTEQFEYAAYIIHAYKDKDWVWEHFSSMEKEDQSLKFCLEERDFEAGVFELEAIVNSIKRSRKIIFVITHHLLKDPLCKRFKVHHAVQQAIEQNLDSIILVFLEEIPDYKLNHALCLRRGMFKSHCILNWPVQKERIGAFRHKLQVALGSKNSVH
# Mus musculus [10] = experiment: Anti-inflammatory activity against MRL/Ipr Systemic lupus erythematosus mouse model assessed as inhibition of anti-Sm/RNP Ab titer at 5 mg/kg, po administered for 8 weeks and measured 24 hrs post final dose relative to control; assay type: functional; set-up: scale not given: the % may be the effect or the level left; conditions: time 1368 hrs
# [11] = In vivo antagonist activity at TRL9 in C57BL/6 mouse assessed as inhibition of ODN1585 stimulated IL-6 production at 30 mg/kg,po for 30 minutes and followed by ODN1585 addition measured after 90 mins by ELISA analysis relative to control; assay type: functional; set-up: scale not given: the % may be the effect or the level left; conditions: time 120 min, 2 h
# [12] = Tmax in mouse blood at 15 mg/kg, po; assay type: ADME, organism-based
# Toll-like receptor 7 = molecular target: T2, Toll-like receptor 7 (Mus musculus, UniProt P58681); experiment: Antagonist activity at gardiquimod stimulated TRL7 in mouse whole blood assessed as inhibition of IL-6 production by ELISA analysis; assay type: tissue-based
# T2 sequence (P58681 whole entry): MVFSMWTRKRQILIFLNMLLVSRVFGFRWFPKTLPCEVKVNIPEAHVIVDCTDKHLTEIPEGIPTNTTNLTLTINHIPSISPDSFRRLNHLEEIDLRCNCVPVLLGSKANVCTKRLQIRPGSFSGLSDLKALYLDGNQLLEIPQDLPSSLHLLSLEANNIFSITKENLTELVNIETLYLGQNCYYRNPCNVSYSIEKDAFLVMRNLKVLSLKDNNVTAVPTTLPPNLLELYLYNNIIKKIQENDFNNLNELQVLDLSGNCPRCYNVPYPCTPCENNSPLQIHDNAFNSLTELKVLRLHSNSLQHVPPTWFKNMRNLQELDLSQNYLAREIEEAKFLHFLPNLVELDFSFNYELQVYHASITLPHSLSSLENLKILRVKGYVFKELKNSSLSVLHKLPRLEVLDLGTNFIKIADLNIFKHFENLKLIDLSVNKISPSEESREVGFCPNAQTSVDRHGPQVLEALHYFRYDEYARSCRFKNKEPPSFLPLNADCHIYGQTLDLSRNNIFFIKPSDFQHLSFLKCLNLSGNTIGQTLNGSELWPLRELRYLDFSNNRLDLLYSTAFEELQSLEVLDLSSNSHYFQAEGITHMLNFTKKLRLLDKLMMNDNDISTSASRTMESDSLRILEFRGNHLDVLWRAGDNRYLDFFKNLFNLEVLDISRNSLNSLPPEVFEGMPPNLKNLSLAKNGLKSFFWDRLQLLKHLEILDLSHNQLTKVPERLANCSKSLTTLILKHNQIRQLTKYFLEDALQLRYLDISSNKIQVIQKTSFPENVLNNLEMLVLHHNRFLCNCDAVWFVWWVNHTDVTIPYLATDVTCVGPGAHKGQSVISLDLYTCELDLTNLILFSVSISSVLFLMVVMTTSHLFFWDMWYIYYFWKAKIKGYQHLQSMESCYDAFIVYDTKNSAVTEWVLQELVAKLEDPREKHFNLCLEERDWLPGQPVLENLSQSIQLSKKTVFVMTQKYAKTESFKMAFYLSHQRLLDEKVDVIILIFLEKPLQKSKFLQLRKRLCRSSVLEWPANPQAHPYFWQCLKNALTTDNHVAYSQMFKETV
# [13] = Toxicity in MRL/Ipr Systemic lupus erythematosus mouse model assessed as drug tolerability at 0.1 to 20 mg/kg, po administered for 8 weeks and measured 24 hrs post final dose; assay type: organism-based; conditions: in vivo, 1368 h, dose 0.1-20 mg/kg
compound,measurement,setting,value
Cc1cc(-c2[nH]c3ccc(C4CCNCC4)cc3c2C(C)C)cc(C)n1,fraction unbound,[1],0.09
same,bioavailability,[2],58%
same,Vd,[3],113 L/kg
same,Activity,[4],49%
same,AUC(0-t),[5],2.77 µM·h
same,Activity,[6],Non-Toxic
same,Activity,Mus musculus [7],92%
same,Activity,[8],66%
same,Activity,Mus musculus [9],20%
same,pIC50,Toll-like receptor 3,< 5.00
same,Activity,Mus musculus [10],74%
same,Activity,[11],38%
same,Tmax,[12],5 h
same,pIC50,Toll-like receptor 7,9.52
same,Activity,[13],Non-Toxic
